Publication PMC5772648, “Targeted NUDT5 inhibitors block hormone signaling in breast cancer cells” (Nature Communications, 2018)

What was measured:
Assay type in all cases: cell-based
NUDT5 in HL-60 cells = target: T1, NUDT5 in HL-60 cells (Homo sapiens, UniProt Q9UKK9); experiment: drug affinity responsive target stability (DARTS); conditions: 0.74 and 2.2 µM, 4 h, HL-60 cells in culture
T1 construct: endogenous in cells; host or cells: HL-60
Method: Target engagement was also determined by drug affinity responsive target stability (DARTS)[33]. HL-60 cells were treated in culture with DMSO (0.1% v/v) or TH5427 at 0.7 or 2.2 µM for 4 h. Following two PBS washes, the cells were lysed with M-PER extraction buffer (ThermoFisher) supplemented with protease inhibitor cocktail (Roche). The lysates were divided into 20 µg aliquots and followed by digestion with pronase at the indicated protein to pronase ratios for 30 min at room temperature. Samples were prepared for western blotting and NUDT5 stabilization was compared with SOD1 as a loading control.

U-2 OS cells [1] = experiment: DNA damage signaling by immunofluorescence (γH2A.X, 53BP1, RPA); conditions: 10 µM, 72 h
Method: Following siRNA knockdown for 48 h, 10 000 U-2 OS cells were seeded per well in black, clear-bottomed 96-well plates (BD Falcon) and allowed to grow for an additional 48 h. For inhibitor treatment experiments, cells were plated at 2000 per well and 10 µM TH5427 was added the following day for an additional 72 h. Cells were washed with PBS and then fixed with 4% paraformaldehyde in PBS (Santa Cruz) with 0.5% Triton X-100 for 15 min. Primary antibodies were γH2A.X (Millipore, 1:1000 or Cell Signaling, 1:1000), 53BP1 (Bethyl, 1:1000 or Abcam, 1:500) and RPA32 (Cell Signaling, 1:1000) diluted in 3% BSA/PBS and incubated at 4 °C overnight. Alexa Fluor secondary antibodies (ThermoFisher) were used at 1:1000 diluted in 3% BSA/PBS for 1 h at room temperature. DNA was counterstained with DAPI and plates were visualized using an ImageXpress high-throughput microscope (Molecular Devices) with 20x objective. Image analysis was performed with CellProfiler software (Broad Institute).

U-2 OS cells [2] = experiment: modified alkaline comet assay (OGG1-specific lesions); conditions: 10 µM, 24 or 72 h
Method: The modified comet assay was used to determine relative amounts of OGG1-specific substrates (e.g., 8-oxo-dG) within cellular DNA[9]. U-2 OS cells were transfected with siRNA for 72 h and/or treated with DMSO/500 nM TH1579 for 24 h prior to harvesting by trypsinization. For experiments with TH5427, cells were treated for 24 or 72 h with 10 µM compound.
In brief, 120 µL of 1% agarose in PBS was added to one end of a fully-frosted microscope slide (ThermoFisher Scientific) and protected with a 24 × 40 mm coverslip to form the first layer. Once solidified at 4 °C, the second layer was made by mixing 400 µL of 1.2% low-melting agarose in PBS with 100 µL of a 1 × 10^6 cells/mL suspension in PBS kept at 37 °C. The coverslip was removed and 80 µL was added on top of the first layer, spread with a coverslip, and left to solidify at 4 °C for 5–10 minutes. Two slides were made for each condition. […]
The slides were visualized using a 10x objective and a Zeiss LSM 780 confocal or Zeiss Axiovert 35 microscope. Comets were analyzed with OpenComet (www.cometbio.org/) or Comet Assay IV (http://www.perceptive.co.uk/products/comet-assay-iv/) software and the tail moments (tail length x percent DNA in the tail) were automatically calculated. […] At least 100 cells were analyzed for each condition per replicate.

In the case of `Cn1c(=O)c2c(nc(N3CCNCC3)n2Cc2nnc(-c3ccc(Cl)c(Cl)c3)o2)n(C)c1=O` [TH5427], the “NUDT5 stabilization against protease degradation” value (NUDT5 in HL-60 cells) is reported as “stabilized NUDT5 against exogenous protease degradation”, the “DNA damage signaling” value (U-2 OS cells [1]) is reported as “neither induced significant DNA damage signaling” and the “OGG1-specific DNA lesions” value (U-2 OS cells [2]) is reported as “nor increased OGG1-specific DNA lesions”.
